{"source": "patent US9125388B2", "about": "“Biological control” (Isis Innovation Limited, priority 1999, dated 2015)", "assay_in_all_cases": "Single chromosome crosses at 25° C., adult progeny by sex", "format_in_all_cases": "in vivo, Drosophila melanogaster", "key": {"[1]": {"tested_on": "Hsp26 tTa^(A) × tRe Ras64B^V12(B, C,)", "procedure": "(§1) In “single chromosome crosses” at 25° C., ten to fifteen virgin females homozygous for the tTA construct and five to ten young males homozygous for the tRe construct were placed on food containing or lacking a tetracycline supplement."}, "[2]": {"tested_on": "Stwl tTa^(A, B, C) × tRe Msl-1^Mpu(A, B)", "procedure": "as §1"}, "[3]": {"tested_on": "Yp3 tTa^(A) × tRe Ras64B^V12(B, C,)", "procedure": "as §1"}, "[4]": {"tested_on": "Yp3 tTa^(A) × tRe Msl-2^Nopu(A, B,)", "procedure": "as §1"}}, "data": [{"smiles": "CN(C)[C@@H]1C(O)=C(C(N)=O)C(=O)[C@@]2(O)C(O)=C3C(=O)c4c(O)cccc4[C@@](C)(O)[C@H]3C[C@@H]12", "note": "[Tetracycline, tetracycline]", "values": [{"measurement": "Female progeny Total", "setting": "[1]; Tetracycline 0.1 μg/ml in food", "result": 235}, {"measurement": "Male progeny Total", "setting": "[1]; Tetracycline 0.1 μg/ml in food", "result": 210}, {"measurement": "Female progeny Total", "setting": "[1]; Tetracycline 1 μg/ml in food", "result": 199}, {"measurement": "Male progeny Total", "setting": "[1]; Tetracycline 1 μg/ml in food", "result": 274}, {"measurement": "Female progeny Total", "setting": "[1]; Tetracycline 5 μg/ml in food", "result": 156}, {"measurement": "Male progeny Total", "setting": "[1]; Tetracycline 5 μg/ml in food", "result": 154}, {"measurement": "Female progeny Total", "setting": "[2]; Tetracycline 0.1 μg/ml in food", "result": 211}, {"measurement": "Male progeny Total", "setting": "[2]; Tetracycline 0.1 μg/ml in food", "result": 336}, {"measurement": "Female progeny Total", "setting": "[2]; Tetracycline 1 μg/ml in food", "result": 236}, {"measurement": "Male progeny Total", "setting": "[2]; Tetracycline 1 μg/ml in food", "result": 257}, {"measurement": "Female progeny Total", "setting": "[2]; Tetracycline 5 μg/ml in food", "result": 223}, {"measurement": "Male progeny Total", "setting": "[2]; Tetracycline 5 μg/ml in food", "result": 291}, {"measurement": "Female progeny Total", "setting": "[3]; Tetracycline 0.1 μg/ml in food", "result": 322}, {"measurement": "Male progeny Total", "setting": "[3]; Tetracycline 0.1 μg/ml in food", "result": 352}, {"measurement": "Female progeny Total", "setting": "[3]; Tetracycline 1 μg/ml in food", "result": 342}, {"measurement": "Male progeny Total", "setting": "[3]; Tetracycline 1 μg/ml in food", "result": 376}, {"measurement": "Female progeny Total", "setting": "[3]; Tetracycline 5 μg/ml in food", "result": 316}, {"measurement": "Male progeny Total", "setting": "[3]; Tetracycline 5 μg/ml in food", "result": 354}, {"measurement": "Female progeny Total", "setting": "[4]; Tetracycline 0.1 μg/ml in food", "result": 268}, {"measurement": "Male progeny Total", "setting": "[4]; Tetracycline 0.1 μg/ml in food", "result": 248}, {"measurement": "Female progeny Total", "setting": "[4]; Tetracycline 1 μg/ml in food", "result": 324}, {"measurement": "Male progeny Total", "setting": "[4]; Tetracycline 1 μg/ml in food", "result": 362}, {"measurement": "Female progeny Total", "setting": "[4]; Tetracycline 5 μg/ml in food", "result": 349}, {"measurement": "Male progeny Total", "setting": "[4]; Tetracycline 5 μg/ml in food", "result": 386}]}]}
